# Test results taken from PubChem BioAssay AID330 (DTP/NCI, 2004).
# Toxic doses and inconclusive results are not listed.
# Test system: P388 leukemia ip, CD2F1 mice, survival T/C
# Experiment: NCI In Vivo Anticancer Drug Screen. Data for tumor model P388 Leukemia (intraperitoneal) in CD2F1 (CDF1) mice
# Settings: endpoint: median survival time, higher = longer survival
# In short: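 Mice carrying the transplanted tumor received test compound or vehicle. Survival was recorded in each group, and the value is the treated-group measurement divided by that of the vehicle-treated control group.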
# [1] = dose: 50.0 mg/kg/injection, schedule: Q01DX009 (ip), vehicle: saline
# [2] = dose: 100.0 mg/kg/injection, schedule: Q01DX009 (ip), vehicle: saline
# [3] = dose: 200.0 mg/kg/injection, schedule: Q01DX009 (ip), vehicle: saline
# [4] = dose: 100.0 mg/kg/injection, schedule: Q01DX001 (ip), vehicle: saline with Tween-80
# [5] = dose: 200.0 mg/kg/injection, schedule: Q01DX001 (ip), vehicle: saline with Tween-80
# [6] = dose: 400.0 mg/kg/injection, schedule: Q01DX001 (ip), vehicle: saline with Tween-80
# [7] = dose: 50.0 mg/kg/injection, schedule: Q01DX005 (ip), vehicle: Klucel (hydroxypropylcellulose) (HPC)
# [8] = dose: 100.0 mg/kg/injection, schedule: Q01DX005 (ip), vehicle: Klucel (hydroxypropylcellulose) (HPC)
# [9] = dose: 200.0 mg/kg/injection, schedule: Q01DX005 (ip), vehicle: Klucel (hydroxypropylcellulose) (HPC)
# [10] = dose: 60.0 mg/kg/injection, schedule: Q01DX005 (ip), vehicle: saline with Tween-80
# [11] = dose: 120.0 mg/kg/injection, schedule: Q01DX005 (ip), vehicle: saline with Tween-80
# [12] = dose: 240.0 mg/kg/injection, schedule: Q01DX005 (ip), vehicle: saline with Tween-80
# [13] = dose: 50.0 mg/kg/injection, schedule: Q01DX005 (ip), vehicle: saline with Tween-80
# [14] = dose: 100.0 mg/kg/injection, schedule: Q01DX005 (ip), vehicle: saline with Tween-80
# [15] = dose: 200.0 mg/kg/injection, schedule: Q01DX005 (ip), vehicle: saline with Tween-80
# [16] = dose: 50.0 mg/kg/injection, schedule: Q01DX009 (ip), vehicle: saline with Tween-80
# [17] = dose: 50.0 mg/kg/injection, schedule: Q01DX009 (ip), vehicle: Klucel (hydroxypropylcellulose) (HPC)
# [18] = dose: 100.0 mg/kg/injection, schedule: Q01DX009 (ip), vehicle: Klucel (hydroxypropylcellulose) (HPC)
# [19] = dose: 200.0 mg/kg/injection, schedule: Q01DX009 (ip), vehicle: Klucel (hydroxypropylcellulose) (HPC)
# [20] = dose: 12.5 mg/kg/injection, schedule: Q01DX009 (ip), vehicle: saline with Tween-80
# [21] = dose: 25.0 mg/kg/injection, schedule: Q01DX009 (ip), vehicle: saline with Tween-80
compound,measurement,setting,value
Cc1nc2c(ccc3cc4ccccc4cc32)cc1N(CCO)CCO,T/C,"dose: 50.0 mg/kg/injection, schedule: Q01DX009 (ip), vehicle: saline + Tween-80 + alcohol",110 % of control
same,T/C,"dose: 100.0 mg/kg/injection, schedule: Q01DX009 (ip), vehicle: saline + Tween-80 + alcohol",108 % of control
same,T/C,"dose: 200.0 mg/kg/injection, schedule: Q01DX009 (ip), vehicle: saline + Tween-80 + alcohol",99 % of control
CCOC(=O)CC(=O)C(F)(F)F.[Cu+2],T/C,"dose: 2.5 mg/kg/injection, schedule: Q01DX009 (ip), vehicle: saline with Tween-80",100 % of control
same,T/C,"dose: 5.0 mg/kg/injection, schedule: Q01DX009 (ip), vehicle: saline with Tween-80",115 % of control
same,T/C,"dose: 10.0 mg/kg/injection, schedule: Q01DX009 (ip), vehicle: saline with Tween-80",110 % of control
Cc1ncc(-c2ccccc2)c(N)n1,T/C,[1],91 % of control
same,T/C,[2],92 % of control
same,T/C,[3],102 % of control
CC[C@@]1(O)C[C@H](OC2CC(N)C(O)C(C)O2)c2c(O)c3c(c(O)c2[C@H]1C(=O)OC)C(=O)c1cccc(O)c1C3=O (stereo partly drawn),T/C,"dose: 1.0 mg/kg/injection, schedule: Q01DX009 (ip), vehicle: water",115 % of control
same,T/C,"dose: 2.0 mg/kg/injection, schedule: Q01DX009 (ip), vehicle: water",116 % of control
same,T/C,"dose: 2.3 mg/kg/injection, schedule: Q01DX009 (ip), vehicle: water",123 % of control
same,T/C,"dose: 12.5 mg/kg/injection, schedule: Q01DX001 (ip), vehicle: water",116 % of control
same,T/C,"dose: 16.0 mg/kg/injection, schedule: Q01DX009 (ip), vehicle: water",86 % of control
same,T/C,"dose: 25.0 mg/kg/injection, schedule: Q01DX001 (ip), vehicle: water",150 % of control
O=C1CC[C@H]2[C@@H]3N1c1ccccc1[C@@]31CCN3C/C(=C/CBr)[C@@H]2C[C@H]31,T/C,"dose: 7.5 mg/kg/injection, schedule: Q01DX005 (ip), vehicle: Klucel (hydroxypropylcellulose) (HPC)",100 % of control
same,T/C,"dose: 15.0 mg/kg/injection, schedule: Q01DX005 (ip), vehicle: Klucel (hydroxypropylcellulose) (HPC)",102 % of control
Clc1ccc(C=Nc2ccc(N=Cc3ccc(Cl)cc3)cc2)cc1,T/C,[4],90 % of control
same,T/C,[5],88 % of control
same,T/C,[6],87 % of control
CCOC(=O)C(C)Oc1ccc(Cl)cc1 (stereo not drawn),T/C,"dose: 25.0 mg/kg/injection, schedule: Q01DX009 (ip), vehicle: water",99 % of control
same,T/C,"dose: 50.0 mg/kg/injection, schedule: Q01DX009 (ip), vehicle: water",102 % of control
same,T/C,"dose: 100.0 mg/kg/injection, schedule: Q01DX009 (ip), vehicle: water",102 % of control
same,T/C,"dose: 200.0 mg/kg/injection, schedule: Q01DX009 (ip), vehicle: water",98 % of control
same,T/C,"dose: 400.0 mg/kg/injection, schedule: Q01DX009 (ip), vehicle: water",107 % of control
CCCC(NC(=O)OCc1ccccc1)C(=O)NC(Cc1c[nH]c2ccccc12)C(=O)O (stereo not drawn),T/C,[7],109 % of control
same,T/C,[8],108 % of control
same,T/C,[9],94 % of control
O=C(O)CSCc1nc2ccccc2[nH]1,T/C,[4],95 % of control
same,T/C,[5],90 % of control
same,T/C,[6],100 % of control
Cc1nc2sccc2c(=O)n1C,T/C,[7],97 % of control
same,T/C,[8],98 % of control
same,T/C,[9],103 % of control
CC1=CC(=O)C2C1CC(=O)C1(C)C3C(=O)OC(C3C)C(O)C21 (stereo not drawn),T/C,"dose: 2.0 mg/kg/injection, schedule: Q01DX005 (ip), vehicle: Klucel (hydroxypropylcellulose) (HPC)",94 % of control
same,T/C,"dose: 4.0 mg/kg/injection, schedule: Q01DX005 (ip), vehicle: Klucel (hydroxypropylcellulose) (HPC)",100 % of control
same,T/C,"dose: 8.0 mg/kg/injection, schedule: Q01DX005 (ip), vehicle: Klucel (hydroxypropylcellulose) (HPC)",103 % of control
same,T/C,"dose: 16.0 mg/kg/injection, schedule: Q01DX005 (ip), vehicle: Klucel (hydroxypropylcellulose) (HPC)",98 % of control
same,T/C,"dose: 32.0 mg/kg/injection, schedule: Q01DX005 (ip), vehicle: Klucel (hydroxypropylcellulose) (HPC)",100 % of control
O=C(CSc1nc(-c2ccccc2)c(-c2ccccc2)o1)N1CCCCC1,T/C,[1],93 % of control
same,T/C,[2],110 % of control
same,T/C,[3],110 % of control
NC1=NC(c2ccccc2O)CC(=O)N1 (stereo not drawn),T/C,[1],103 % of control
same,T/C,[2],111 % of control
same,T/C,[3],110 % of control
COC(=O)c1[nH]c(=O)c(C#N)c(C(=O)OC)c1-c1ccc(F)cc1,T/C,[10],100 % of control
same,T/C,[11],92 % of control
same,T/C,[12],95 % of control
COC(=O)CCCC1=NCCS1,T/C,[13],103 % of control
same,T/C,[14],103 % of control
same,T/C,[15],112 % of control
NC(=S)N/N=C\c1nccc2ccc(N)cc12,T/C,[16],94 % of control
[O-]/[N+]1=[N+](\[O-])c2ccccc2COCc2ccccc21,T/C,[10],96 % of control
same,T/C,[11],93 % of control
same,T/C,[12],89 % of control
C[CH2][Sn]1([CH2]C)[O]C(=O)[O][Sn]([CH2]C)([CH2]C)[O]1,T/C,"dose: 3.12 mg/kg/injection, schedule: Q01DX005 (ip), vehicle: Klucel (hydroxypropylcellulose) (HPC)",122 % of control
same,T/C,"dose: 6.25 mg/kg/injection, schedule: Q01DX005 (ip), vehicle: Klucel (hydroxypropylcellulose) (HPC)",119 % of control
CC(C#N)(C#N)N=Nc1ccc(Br)cc1,T/C,[13],106 % of control
same,T/C,[14],105 % of control
O=P(O)(O)O.[Cr+3].[NH-]CC[NH-].[NH-]CC[NH-].[NH-]CC[NH-],T/C,"dose: 25.0 mg/kg/injection, schedule: Q01DX009 (ip), vehicle: saline",101 % of control
same,T/C,[1],97 % of control
same,T/C,[2],99 % of control
N#CN=C1N=S(=O)(c2ccccc2)c2ccccc21 (stereo not drawn),T/C,[17],103 % of control
same,T/C,[18],100 % of control
same,T/C,[19],101 % of control
CCOC(=O)/C(=C(/[S-])SC)[n+]1ccc(C)cc1,T/C,"dose: 100.0 mg/kg/injection, schedule: Q04DX002 (ip), vehicle: saline with Tween-80",101 % of control
same,T/C,"dose: 200.0 mg/kg/injection, schedule: Q04DX002 (ip), vehicle: saline with Tween-80",99 % of control
CCC(=O)c1ccc(OC(C)=O)cc1,T/C,"dose: 50.0 mg/kg/injection, schedule: Q04DX003 (ip), vehicle: saline with Tween-80",103 % of control
same,T/C,"dose: 100.0 mg/kg/injection, schedule: Q04DX003 (ip), vehicle: saline with Tween-80",103 % of control
same,T/C,"dose: 200.0 mg/kg/injection, schedule: Q04DX003 (ip), vehicle: saline with Tween-80",96 % of control
CCOC(=O)c1ccc(NC(Cc2ccccc2)=NC(C)(C)C)cc1,T/C,[16],98 % of control
same,T/C,"dose: 100.0 mg/kg/injection, schedule: Q01DX009 (ip), vehicle: saline with Tween-80",94 % of control
same,T/C,"dose: 200.0 mg/kg/injection, schedule: Q01DX009 (ip), vehicle: saline with Tween-80",88 % of control
N#C/C(=C/c1ccc(Cl)cc1)c1ccc(Cl)cc1,T/C,[17],102 % of control
same,T/C,[18],110 % of control
same,T/C,[19],102 % of control
N#Cc1nccnc1C#N,T/C,[20],86 % of control
same,T/C,[21],105 % of control
same,T/C,[17],102 % of control
same,T/C,[16],101 % of control
COc1cccc(N=Nc2c(N)nc(N)nc2N)c1,T/C,[20],100 % of control
same,T/C,[21],108 % of control
same,T/C,[16],117 % of control
CCOC(=O)c1ccc(N(CCC2CO2)S(=O)(=O)c2ccc(C)cc2)cc1 (stereo not drawn),T/C,"dose: 25.0 mg/kg/injection, schedule: Q01DX009 (ip), vehicle: Klucel (hydroxypropylcellulose) (HPC)",94 % of control
same,T/C,[17],93 % of control
same,T/C,[18],98 % of control
same,T/C,[19],94 % of control
O=C(c1ccccc1)C(C(=O)c1ccccc1)S(=O)(=O)c1ccccc1,T/C,[13],93 % of control
same,T/C,[14],93 % of control
same,T/C,[15],91 % of control
O=Cc1c(Cl)n(C(=O)c2ccc(F)cc2)c2ccccc12,T/C,"dose: 100.0 mg/kg/injection, schedule: Q01DX001 (ip), vehicle: Klucel (hydroxypropylcellulose) (HPC)",97 % of control
same,T/C,"dose: 200.0 mg/kg/injection, schedule: Q01DX001 (ip), vehicle: Klucel (hydroxypropylcellulose) (HPC)",113 % of control
same,T/C,"dose: 400.0 mg/kg/injection, schedule: Q01DX001 (ip), vehicle: Klucel (hydroxypropylcellulose) (HPC)",96 % of control
